Data on twelve compounds can be found in ChEMBL document CHEMBL3124789, “4,5-Dihydro-1H-pyrazolo[3,4-d]pyrimidine containing phenothiazines as antitubercular agents” (Bioorg Med Chem Lett, 2014).

In general, inhibition refers to how much of the control response was suppressed. Usually IC50 stands for the point on the concentration scale where inhibition reaches its midpoint. For orientation: MIC means the smallest concentration in the dilution series that meets the test's criterion for growth inhibition.

In brackets after ≈: the same amount, converted by molar mass.

Series [1] relates to Mycobacterium tuberculosis. Put plainly: Antitubercular activity against Mycobacterium tuberculosis H37Rv assessed as growth inhibition at 6.25 ug/ml after 4 days by microplate alamar blue assay. As to conditions: 96 h. The series is classed as functional. In general terms: Alamar Blue is a resazurin reagent that responds to reducing activity.
For series [2], the system named is Vero. As to the kind of experiment: Cytotoxicity against African green monkey Vero cells. It counts as cell-based. As to conditions: Chlorocebus sabaeus.
Series [3] can be described thus: Selectivity index, ratio of IC50 for African green monkey Vero cells to MIC for Mycobacterium tuberculosis H37Rv. The series is classed as toxicity, cell-based. The note with it: read-out: Selectivity Index.
In series [4] the test system is Mycobacterium tuberculosis. Put plainly: Antitubercular activity against Mycobacterium tuberculosis H37Rv assessed as growth inhibition by 2-fold dilution assay. The series is classed as functional.

`Cc1nn(-c2ccc3c(c2)Nc2ccccc2S3)c2c1C(c1cccc(Cl)c1)NC(N)=N2` (centres undefined): the inhibition at 6.25 µg/mL in series [1] was 56%.
On to `Cc1nn(-c2ccc3c(c2)Nc2ccccc2S3)c2c1C(c1ccccc1)NC(N)=N2` (centres undefined), for which the inhibition at 6.25 µg/mL in series [1] was found to be 78%.
The compound `Cc1nn(-c2ccc3c(c2)Nc2ccccc2S3)c2c1C(c1ccccc1O)NC(N)=N2` (centres undefined) came in with a 50% inhibitory concentration (IC50) in series [2] of 7.8 µg/mL (≈ 17.7 µM). In series [3], the selectivity ratio worked out at 3.5. The inhibition at 6.25 µg/mL in series [1] stood at 92%. Further, the minimal inhibitory concentration (MIC) in series [4] was determined as 2.23 µg/mL (≈ 5.06 µM).
As for `Cc1nn(-c2ccc3c(c2)Nc2ccccc2S3)c2c1C(c1cccc(O)c1)NC(N)=N2` (centres undefined), the inhibition at 6.25 µg/mL in series [1] was determined as 57%.
Take `Cc1nn(-c2ccc3c(c2)Nc2ccccc2S3)c2c1C(c1ccc(O)cc1)NC(N)=N2` (centres undefined): in series [1], the inhibition at 6.25 µg/mL came out at 67%.
In the case of `Cc1nn(-c2ccc3c(c2)Nc2ccccc2S3)c2c1C(c1ccccc1Cl)NC(N)=N2` (centres undefined), in series [2], the IC50 is more than 10 µg/mL. Besides, the selectivity ratio in series [3] is 5.8. In addition, in series [1], the inhibition at 6.25 µg/mL was 95%. In addition, the MIC in series [4] came out at 1.73 µg/mL (≈ 3.77 µM).
With `Cc1nn(-c2ccc3c(c2)Nc2ccccc2S3)c2c1C(c1ccc(Cl)cc1)NC(N)=N2` (centres undefined), the half-inhibitory concentration (IC50) in series [2] is more than 10 µg/mL. Moreover, in series [3], the selectivity ratio was more than 500. Moreover, in series [1], the inhibition at 6.25 µg/mL worked out at 100%. In addition, in series [4], the MIC came to 0.02 µg/mL (≈ 0.0436 µM).
`Cc1nn(-c2ccc3c(c2)Nc2ccccc2S3)c2c1C(c1ccccc1[N+](=O)[O-])NC(N)=N2` (centres undefined) returned an IC50 in series [2] of more than 10 µg/mL. For the same compound, in series [3], the selectivity ratio is 5.8. Besides, the inhibition at 6.25 µg/mL in series [1] was determined as 94%. For the same compound, the minimal inhibitory concentration (MIC) in series [4] was 1.73 µg/mL (≈ 3.68 µM).
Turning to `Cc1nn(-c2ccc3c(c2)Nc2ccccc2S3)c2c1C(c1cccc([N+](=O)[O-])c1)NC(N)=N2` (centres undefined), the inhibition at 6.25 µg/mL in series [1] amounted to 73%.
As for `Cc1nn(-c2ccc3c(c2)Nc2ccccc2S3)c2c1C(c1ccc([N+](=O)[O-])cc1)NC(N)=N2` (centres undefined), the IC50 in series [2] was 9.1 µg/mL (≈ 19.4 µM). Besides, the selectivity ratio in series [3] stood at 5.2. Further, the inhibition at 6.25 µg/mL in series [1] amounted to 95%. Also, the MIC in series [4] is 1.73 µg/mL (≈ 3.68 µM).
`COc1ccc(C2NC(N)=Nc3c2c(C)nn3-c2ccc3c(c2)Nc2ccccc2S3)cc1` (centres undefined): the inhibition at 6.25 µg/mL in series [1] was 42%.
For `NNC(=O)c1ccncc1` [ISONIAZID], the IC50 in series [2] was more than 1000 µg/mL. In addition, the selectivity ratio in series [3] was more than 40000. Also, the MIC in series [4] was determined as 0.03 µg/mL (≈ 0.219 µM).
